Data as given in the supplement of paper PMC10307832.

How the values were obtained:
Assay in all cases: relative viability (nuclei count vs DMSO), 5 days (fraction); higher = more cells survive
[1] = compound: COc1cc2nccc(Oc3ccc(NC(=O)C4(C(=O)Nc5ccc(F)cc5)CC4)cc3)c2cc1OC [Cabozantinib] + O=C(CCCCCCC(=O)Nc1ccccc1)NO [Vorinostat] (partner 1 µM)
How it was run: (§1)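 A single step with final 0.05% Triton X-100, 1% formaldehyde and 1 ug/ml Hoechst fixed the cells and stained nuclei 5 days after treatment. Lung cancer cell lines in 1536-well plates had been treated by pin tool the day after seeding with one drug alone or a fixed anchor-drug dose plus five library-drug doses (not always all listed) in √10 steps, and nuclei were counted on 4× images. Relative viability is the ratio of nuclei in treated wells to nuclei in vehicle wells, taken as the median of duplicate plates.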

[2] = compound: O[C@@H](COc1cccc2ncccc12)CN1CCN([C@@H]2c3ccccc3[C@@H]3[C@H](c4ccccc42)C3(F)F)CC1 [Zosuquidar] + Cc1nc(Nc2ncc(C(=O)Nc3c(C)cccc3Cl)s2)cc(N2CCN(CCO)CC2)n1 [Dasatinib] (partner 0.075 µM)
How it was run: as §1

[3] = compound: COc1cc2nccc(Oc3ccc(NC(=O)C4(C(=O)Nc5ccc(F)cc5)CC4)cc3)c2cc1OC [Cabozantinib] + CC(=O)Nc1cccc(-n2c(=O)n(C3CC3)c(=O)c3c(Nc4ccc(I)cc4F)n(C)c(=O)c(C)c32)c1 [Trametinib] (partner 0.02 µM)
How it was run: as §1

[4] = compound: C1=CC(=CC=C1NC(=S)NNC2=C(C=C(C=C2[N+](=O)[O-])C(F)(F)F)[N+](=O)[O-])F [Kobe2602] + Cc1nc(NC(=O)N2CCC[C@H]2C(N)=O)sc1-c1ccnc(C(C)(C)C(F)(F)F)c1 [Alpelisib] (partner 2 µM)
How it was run: as §1

| Cell Line | relative viability ([1]; first compound 0.02 µM) | relative viability ([1]; first compound 0.06325 µM) | relative viability ([1]; first compound 0.2 µM) | relative viability ([1]; first compound 0.6325 µM) | relative viability ([1]; first compound 2 µM) | relative viability ([2]; first compound 0.01 µM) | relative viability ([2]; first compound 0.03162 µM) | relative viability ([2]; first compound 0.1 µM) | relative viability ([2]; first compound 0.3162 µM) | relative viability ([2]; first compound 1 µM) | relative viability ([3]; first compound 0.02 µM) | relative viability ([3]; first compound 0.06325 µM) | relative viability ([3]; first compound 0.2 µM) | relative viability ([3]; first compound 0.6325 µM) | relative viability ([3]; first compound 2 µM) | relative viability ([4]; first compound 0.2 µM) | relative viability ([4]; first compound 0.6325 µM) | relative viability ([4]; first compound 2 µM) | relative viability ([4]; first compound 6.325 µM) | relative viability ([4]; first compound 20 µM) |
| --- | --- | --- | --- | --- | --- | --- | --- | --- | --- | --- | --- | --- | --- | --- | --- | --- | --- | --- | --- | --- |
| NCI-H522 | 0.737 | 1.01 | 1.03 | 0.902 | 0.902 | 0.933 | 0.739 | 0.867 | 0.853 | 1.45 | 0.823 | 0.819 | 0.78 | 0.861 | 0.69 | – | – | – | – | – |
| LOU-NH91 | 0.851 | 0.973 | 0.822 | 0.853 | 0.914 | 0.515 | 0.377 | – | 0.601 | 0.552 | 0.778 | 0.866 | 0.692 | 0.785 | 0.748 | 0.767 | 0.752 | 0.701 | 0.722 | 0.778 |
| NCI-H1355 | 0.659 | 0.754 | 0.6 | 0.635 | 0.625 | 0.681 | 0.726 | 0.623 | 0.85 | 0.711 | 0.433 | 0.462 | 0.441 | 0.421 | 0.435 | 0.791 | 0.938 | 0.79 | 0.751 | 0.845 |
| NCI-H460 | 0.893 | 0.818 | 0.68 | 0.635 | 0.741 | 0.428 | 0.364 | 0.453 | 0.855 | 0.485 | 0.133 | 0.196 | 0.134 | 0.159 | 0.174 | 0.513 | 0.55 | 0.507 | 0.499 | 0.444 |
| NCI-H1793 | 0.652 | 1.12 | – | 0.744 | 0.759 | 0.375 | 0.3 | – | 0.489 | 0.488 | 0.489 | 0.428 | – | 0.432 | 0.341 | 0.629 | 0.615 | 0.589 | 0.684 | 0.847 |
| NCI-H2023 | 0.608 | 0.623 | 0.599 | 0.648 | 0.594 | 0.46 | 0.436 | 0.557 | 0.532 | 0.674 | 0.497 | 0.707 | 0.445 | 0.381 | 0.293 | 0.561 | 0.58 | 0.588 | 0.516 | 0.498 |
| NCI-H1666 | 1.09 | 1.1 | 1.02 | 1.04 | 0.95 | 0.785 | 0.818 | 0.869 | 0.9 | 0.761 | 0.845 | 0.83 | 0.798 | 0.883 | 0.878 | 0.97 | 0.925 | – | 0.893 | 0.768 |
| HARA | 0.576 | 0.52 | – | 0.529 | 0.489 | 0.252 | – | 0.26 | 0.257 | 0.27 | 0.749 | 0.772 | – | 0.883 | 0.633 | 0.934 | 0.943 | 0.797 | 0.752 | 0.791 |
| NCI-H358 | 0.683 | 0.905 | 0.556 | 0.623 | 0.534 | 0.144 | 0.172 | 0.142 | 0.183 | 0.153 | 0.114 | 0.138 | 0.136 | 0.139 | 0.126 | 0.799 | 0.836 | 0.677 | 0.884 | 0.827 |
| Calu-6 | – | – | – | – | – | – | – | – | – | – | – | – | – | – | – | 0.883 | 1.04 | 0.96 | 1 | 0.987 |
| NCI-H2342 | 0.735 | 0.776 | 0.697 | 0.798 | 0.724 | 0.275 | 0.312 | 0.327 | 0.313 | 0.299 | 0.872 | 0.949 | 0.878 | 0.738 | 0.535 | – | – | – | – | – |
| ChaGo-K-1 | 0.741 | 0.81 | 0.704 | 0.72 | 0.772 | 0.615 | 0.583 | 0.602 | 0.737 | 0.624 | 0.838 | 0.906 | 0.928 | 0.893 | 0.899 | – | – | – | – | – |
| NCI-H1563 | – | – | – | – | – | 0.435 | 0.47 | 0.51 | 0.459 | 0.454 | – | – | – | – | – | 0.939 | 0.917 | 0.871 | 0.839 | 1.08 |
| NCI-H1299 | – | – | – | – | – | – | – | – | – | – | – | – | – | – | – | 1.02 | 1.05 | 1.08 | 1.13 | 1.05 |
| NCI-H1623 | – | – | – | – | – | 0.499 | 0.634 | 0.487 | 0.607 | 0.498 | – | – | – | – | – | – | – | – | – | – |
| HCC-44 | 1.1 | 1.29 | 1.08 | 1.14 | 1.08 | – | – | – | – | – | 1.04 | 1.15 | 1.21 | 1.06 | 1.04 | 0.852 | 0.793 | 0.767 | 0.725 | 0.737 |
| SW 900 | 0.521 | 0.678 | 0.411 | 0.515 | 0.464 | 0.795 | 0.609 | 0.57 | 0.545 | 0.61 | 0.978 | 0.841 | 0.611 | 0.955 | 0.852 | – | – | – | – | – |
| ABC-1 | – | 1.24 | 0.99 | 1.02 | 0.913 | 0.625 | 0.592 | 0.575 | 0.766 | 0.532 | – | – | – | – | – | 0.785 | 1.06 | 1.13 | 1.11 | 1.08 |
| NCI-H1648 | 0.425 | 0.589 | – | 0.55 | 0.408 | – | – | – | – | – | 0.501 | 0.448 | – | 0.672 | 0.419 | – | – | – | – | – |
| IA-LM | 0.995 | 1.18 | 1 | 0.946 | 1.2 | – | – | – | – | – | – | – | – | – | – | – | 0.778 | 0.602 | 0.683 | 0.751 |
| A549 | – | – | – | – | – | – | – | – | – | – | – | – | – | – | – | 0.716 | 0.905 | 0.74 | 0.846 | 0.789 |
| NCI-H1792 | – | – | – | – | – | 0.819 | 0.514 | – | 0.927 | 0.757 | – | 0.483 | 0.455 | 0.417 | 0.32 | 0.633 | 0.749 | 0.696 | 0.615 | 0.679 |
